Assay results as given in US10988459B2 (priority 2015, dated 2021).

These compounds were tested against human RIP1 kinase domain (2-375) (Homo sapiens (Human), UniProt Q13546) (assay: biochemical). Settings: Table 1; apparent Ki (Morrison tight-binding fit); 50 nM RIP1 kinase domain, 50 uM ATP, 2 hours incubation; read-out: RIP1 Ki.
Sequence of human RIP1 kinase domain (2-375) (Q13546 2-375): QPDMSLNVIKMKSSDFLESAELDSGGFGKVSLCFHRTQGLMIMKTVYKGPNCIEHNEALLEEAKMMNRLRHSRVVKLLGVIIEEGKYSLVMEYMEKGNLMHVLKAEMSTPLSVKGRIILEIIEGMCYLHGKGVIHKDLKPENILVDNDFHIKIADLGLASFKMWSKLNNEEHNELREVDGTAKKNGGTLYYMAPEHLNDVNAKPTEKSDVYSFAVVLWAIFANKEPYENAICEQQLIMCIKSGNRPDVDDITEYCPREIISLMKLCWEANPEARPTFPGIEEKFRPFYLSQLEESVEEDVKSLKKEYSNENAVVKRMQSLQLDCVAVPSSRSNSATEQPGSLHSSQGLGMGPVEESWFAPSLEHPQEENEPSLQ
Format: biochemical
Procedure, shortened: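 50 nM purified kinase domain from baculovirus-infected insect cells, incubated 2 h with compound in 50 mM Hepes pH 7.5, 30 mM MgCl2, 1 mM DTT, 50 uM ATP, 0.002% Brij-35, 0.5% DMSO. ADP formation read by Transcreener FP at 633 nm excitation. Ki^app fitted with the Morrison tight-binding equation.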
Work on `O=C(N[C@H]1COc2ccccc2NC1=O)c1n[nH]c2c1C1CC1CC2` (stereo partly drawn) [Example 54, N-((S)-4-oxo-2,3,4,5-tetrahydrobenzo[b][1,4]oxazepin-3-yl)-3,4,5,5a,6,6a-hexahydrocyclopropa[e]indazole-1-carboxamide] yielded a Ki of 7700 nM. In the case of `CN1C(=O)[C@@H](NC(=O)c2n[nH]c3c2C2CC2CC3)COc2ccccc21` (stereo partly drawn) [Example 59, N-((S)-5-methyl-4-oxo-2,3,4,5-tetrahydrobenzo[b][1,4]oxazepin-3-yl)-3,4,5,5a,6,6a-hexahydrocyclopropa[e]indazole-1-carboxamide], the Ki is reported as 1700 nM.

Same assay, conditions: Table 5; apparent Ki (Morrison tight-binding fit); 50 nM RIP1 kinase domain, 50 uM ATP, 2 hours incubation; read-out: Ki
`CN1C(=O)[C@@H](NC(=O)c2nc3n(n2)CCNC3C(F)(F)F)COc2ccccc21` (stereo partly drawn) [Example 787, N-[(3S)-5-methyl-4-oxo-2,3-dihydro-1,5-benzoxazepin-3-yl]-8-(trifluoromethyl)-5,6,7,8-tetrahydro-[1,2,4]triazolo [1,5-a]pyrazine-2-carboxamide] was tested, and the Ki was 309 nM.

Same assay, conditions: human RIP1 kinase domain (2-375), 50 uM ATP, 2 hours incubation, Transcreener ADP assay; read-out: RIP1 Ki
`CN1C(=O)[C@@H](NC(=O)c2nnn3c2C[C@@H](C(F)(F)F)CC3)COc2ccccc21` [Example 150, (S)-N-((S)-5-methyl-4-oxo-2,3,4,5-tetrahydrobenzo[b][1,4]oxazepin-3-yl)-5-(trifluoromethyl)-4,5,6,7-tetrahydro-[1,2,3]triazolo[1,5-a]pyridine-3-carboxamide] gave a Ki of 125 nM. `CN1C(=O)C(NC(=O)c2ncn(Cc3ccccc3)n2)CCn2cncc21` (centres unmarked) [Example 204, 1-benzyl-N-(1-methyl-2-oxo-2,3,4,5-tetrahydro-1H-imidazo[1,5-a][1,3]diazepin-3-yl)-1H-1,2,4-triazole-3-carboxamide] showed a Ki of 84.3 nM. With `CCC1Cc2c(C(=O)N[C@H]3COc4ccccc4N(C)C3=O)n[nH]c2CO1` (stereo partly drawn) [Example 186, 5-ethyl-N—((S)-5-methyl-4-oxo-2,3,4,5-tetrahydrobenzo[b][1,4]oxazepin-3-yl)-1,4,5,7-tetrahydropyrano[3,4-c]pyrazole-3-carboxamide] the Ki was 135 nM.

Same assay, conditions: human RIP1 kinase domain (2-375), Transcreener ADP assay, 50 uM ATP, 2 hours incubation; read-out: RIP1 Ki
Work on `CN1C(=O)[C@H](NC(=O)c2ncn(Cc3ccccc3)n2)CCn2nc(C3CC3(F)F)cc21` (stereo partly drawn) [Example 284, 1-benzyl-N-((6R)-2-(2,2-difluorocyclopropyl)-4-methyl-5-oxo-5,6,7,8-tetrahydro-4H-pyrazolo[1,5-a][1,3]diazepin-6-yl)-1H-1,2,4-triazole-3-carboxamide] yielded a Ki of 86.4 nM. `CC[C@@]1(C)OCc2cnc(C(=O)NC3CCn4nc(C5CCOCC5)cc4N(C)C3=O)cc21` (stereo partly drawn) [Example 236, (1R)-1-ethyl-1-methyl-N-(4-methyl-5-oxo-2-(tetrahydro-2H-pyran-4-yl)-5,6,7,8-tetrahydro-4H-pyrazolo[1,5-a][1,3]diazepin-6-yl)-1,3-dihydrofuro[3,4-c]pyridine-6-carboxamide] showed a Ki of 8000 nM. `CN1C(=O)[C@@H](NC(=O)c2cc3c(cn2)COC32CCOCC2)COc2ccccc21` [Example 299, (S)—N-(5-methyl-4-oxo-2,3,4,5-tetrahydrobenzo[b][1,4]oxazepin-3-yl)-2′,3′,5′,6′-tetrahydro-3H-spiro[furo[3,4-c]pyridine-1,4′-pyran]-6-carboxamide] showed a Ki of 74 nM. Work on `Cc1ccc(Cn2cnc(C(=O)NC3CCn4nc(C5CC5)cc4N(C)C3=O)n2)cn1` (centres unmarked) [Example 278, N-(2-cyclopropyl-4-methyl-5-oxo-5,6,7,8-tetrahydro-4H-pyrazolo[1,5-a][1,3]diazepin-6-yl)-1-((6-methylpyridin-3-yl)methyl)-1H-1,2,4-triazole-3-carboxamide] yielded a Ki of 516 nM.

Same assay, conditions: read-out: RIP1 Ki
For `CN1C(=O)[C@@H](NC(=O)c2n[nH]c3c2C[C@H](C(C)(C)C)CC3)COc2ccccc21` [Example 61, (R)-5-(tert-butyl)-N-((S)-5-methyl-4-oxo-2,3,4,5-tetrahydrobenzo[b][1,4]oxazepin-3-yl)-4,5,6,7-tetrahydro-1H-indazole-3-carboxamide], the Ki was 48 nM.

Same assay, conditions: tight-binding apparent inhibition constant; human RIP1 kinase domain (2-375) 50 nM, 50 uM ATP, 2 hours; read-out: Ki
For `Cc1nc(C)n2c1N(C)C(=O)[C@H](NC(=O)c1ncn(Cc3ccccc3F)n1)CC2` [Example 596, 1-[(2-fluorophenyl)methyl]-N-(3R)-1,7,9-trimethyl-2-oxo-4,5-dihydro-3H-imidazo[1,5-a][1,3]diazepin-3-yl-1,2,4-triazole-3-carboxamide], the Ki was 100 nM. Work on `Cc1ncn2c1N(C)C(=O)[C@H](NC(=O)c1ncn(Cc3ccccc3)n1)CC2` [Example 505, 1-benzyl-N-(3R)-1,9-dimethyl-2-oxo-4,5-dihydro-3H-imidazo[1,5-a][1,3]diazepin-3-yl-1,2,4-triazole-3-carboxamide] yielded a Ki of 36 nM. `Cc1cc2n(n1)CC[C@H](NC(=O)c1nc3n(n1)[C@H](c1ccccc1)CC3)C(=O)N2C` (single isomer, unassigned) [Example 610] gave a Ki of 920 nM. In the case of `CCc1cccc2nc(C(=O)N[C@H]3CCn4nccc4N(C)C3=O)nn12` [Example 374, (S)-5-ethyl-N-(4-methyl-5-oxo-5,6,7,8-tetrahydro-4H-pyrazolo[1,5-a][1,3]diazepin-6-yl)-[1,2,4]triazolo[1,5-a]pyridine-2-carboxamide], the Ki is reported as 269 nM. Work on `CCc1cccc2nc(C(=O)N[C@H]3COc4ccccc4N(C)C3=O)nn12` [Example 378, (S)-5-ethyl-N-(5-methyl-4-oxo-2,3,4,5-tetrahydrobenzo[b][1,4]oxazepin-3-yl)-[1,2,4]triazolo[1,5-a]pyridine-2-carboxamide] yielded a Ki of 6.68 nM. `Cc1cc2n(n1)CC[C@@H](NC(=O)c1ncc3cnn(-c4ccccn4)c3n1)C(=O)N2C` [Example 633, 1-(2-pyridyl)-N-[(6R)-2,4-dimethyl-5-oxo-7,8-dihydro-6H-pyrazolo[1,5-a][1,3]diazepin-6-yl]pyrazolo[3,4-d]pyrimidine-6-carboxamide] gave a Ki of 3800 nM. Compound `CN1C(=O)[C@@H](NC(=O)c2ncn(Cc3ccccc3)n2)CCn2nc(CC3CC3)cc21` [Example 459, (S)-1-benzyl-N-(2-(cyclopropylmethyl)-4-methyl-5-oxo-5,6,7,8-tetrahydro-4H-pyrazolo[1,5-a][1,3]diazepin-6-yl)-1H-1,2,4-triazole-3-carboxamide] has a Ki of 7 nM. `CN1C(=O)[C@@H](NC(=O)c2cc3c(cn2)cnn3C(F)(F)F)COc2ccccc21` [Example 356, (S)—N-(5-methyl-4-oxo-2,3,4,5-tetrahydrobenzo[b][1,4]oxazepin-3-yl)-1-(trifluoromethyl)-1H-pyrazolo[4,3-c]pyridine-6-carboxamide] gave a Ki of 7.02 nM. `CN1C(=O)[C@@H](NC(=O)c2ncn(Cc3cccc(F)c3)n2)CCn2nc(C(F)(F)F)cc21` [Example 527] was tested, and the Ki was 23 nM. Work on `CN1C(=O)[C@@H](NC(=O)c2ncn(Cc3ccccn3)n2)CCn2nccc21` [Example 650, 1-(2-pyridylmethyl)-N-(6S)-4-methyl-5-oxo-7,8-dihydro-6H-pyrazolo[1,5-a][1,3]diazepin-6-yl-1,2,4-triazole-3-carboxamide] yielded a Ki of 190 nM. In the case of `Cc1cc2n(n1)CC[C@H](NC(=O)c1ncc3cnn(-c4ccccn4)c3n1)C(=O)N2C` [Example 632, 1-(2-pyridyl)-N-[(6S)-2,4-dimethyl-5-oxo-7,8-dihydro-6H-pyrazolo[1,5-a][1,3]diazepin-6-yl]pyrazolo[3,4-d]pyrimidine-6-carboxamide], the Ki is reported as 3100 nM. Compound `CN1C(=O)C(NC(=O)c2ncn(Cc3ccccc3)n2)CCn2nc(C(C)(C)F)cc21` (single isomer, unassigned) [Example 369, 1-benzyl-N-[2-(1-fluoro-1-methyl-ethyl)-4-methyl-5-oxo-7,8-dihydro-6H-pyrazolo[1,5-a][1,3]diazepin-6-yl]-1,2,4-triazole-3-carboxamide] has a Ki of 345 nM.
